Results published in patent US20030166706A1, “Method of treating osteoarthritis” (priority 2002, published 2003).
Entries after “also recorded” stand apart in the source; their conditions may differ. Marks after values point to notes of the source that are not given here.

Assays:
[1] = tested on: Monosodium Iodoacetate-induced Osteoarthritis in Rat; test: Monosodium iodoacetate-induced osteoarthritis in rat model of cartilage damage (MIA Rat); assay type: in vivo, male Wistar rats
[2] = cited from earlier work
[3] = 4 weeks study, subcutaneously via osmotic pumps, 10 mg/kg/day
[4] = 4 weeks study, subcutaneously via osmotic pumps, 30 mg/kg/day
[5] = 4 weeks study, subcutaneously via osmotic pumps, 100 mg/kg/day

With `O=C(O)[C@@H]1C[C@@H]2CCCC[C@@H]2N1` [[2(S), 3a(S), 7a(S)]-2,3,3a,4,5,6,7,7a-octahydroindol-2-carboxylic acid] the “degree of structural damage to the cartilage” value ([1]; 10 mg/kg PO, BID, 4 weeks post-MIA) was “significantly decreased”, the “degree of structural damage to the cartilage” value ([1]; 30 mg/kg PO, BID, 4 weeks post-MIA) was “significantly decreased” and the “IJFL (Inhibition of Joint Function Limitation) (% +/− SEM)” value ([1]; 2 weeks study, subcutaneously via osmotic pumps, 90 mg/kg/day, p < 0.05 versus vehicle) was 85 +/− 3%. For the same molecule, the “SDCES (Significant Decrease In Cartilage Erosion Severity)” value [1, 3] was “No”, the “SIJWHLE (Significant Increase in Joints Without Hind Limb Erosion)” value [1, 3] was “No” and the “IJFL (Inhibition of Joint Function Limitation) (% +/− SEM)” value ([1]; 4 weeks study, subcutaneously via osmotic pumps, 10 mg/kg/day, Not statistically significant) was 28 +/− 14^e %. For the same molecule, the “SDCES (Significant Decrease In Cartilage Erosion Severity)” value [1, 4] was “No”, the “SIJWHLE (Significant Increase in Joints Without Hind Limb Erosion)” value [1, 4] was “No” and the “IJFL (Inhibition of Joint Function Limitation) (% +/− SEM)” value ([1]; 4 weeks study, subcutaneously via osmotic pumps, 30 mg/kg/day, p < 0.05 versus vehicle) was 94 +/− 10%. The “SDCES (Significant Decrease In Cartilage Erosion Severity)” value [1, 5] was “No”, the “SIJWHLE (Significant Increase in Joints Without Hind Limb Erosion)” value [1, 5] was “No” and the “IJFL (Inhibition of Joint Function Limitation) (% +/− SEM)” value ([1]; 4 weeks study, subcutaneously via osmotic pumps, 100 mg/kg/day, p < 0.05 versus vehicle) was 78 +/− 3%. For the same molecule, the “inhibiting cartilage damage and treating osteoarthritis, from analysis of proteoglycan loss” value ([1]; MIA Rat data that are expected) was “effective”, the joint pain ([1]; all doses, 3 to 30 mg/kg PO, BID, 4 weeks post-MIA) was “significantly decreased joint pain” and the “preventing or treating cartilage damage” value ([1]; conclusion from MIA Rat data of Tables 1 and 2) was “effective”. The “joint function limitations as defined by a reduction in differential hind-limb weight bearing” value ([1]; dosed orally two times per day) was “decrease joint function limitations”, the “SIJWHLE (Significant Increase in Joints Without Hind Limb Erosion)” value ([1]; four week study, oral, two times per day, 3 mg/kg per dose, Cochran-Armitage Trend test) was “No” and the “SDCES (Significant Decrease In Cartilage Erosion Severity)” value ([1]; four week study, oral, two times per day, 3 mg/kg per dose, Ridit Analysis) was “No”. The “IJFL (Inhibition of Joint Function Limitation) (% +/− SEM)” value ([1]; four week study, oral, two times per day, 3 mg/kg per dose, p < 0.05 versus vehicle) was 62 +/− 6%, the “SIJWHLE (Significant Increase in Joints Without Hind Limb Erosion)” value ([1]; four week study, oral, two times per day, 10 mg/kg per dose, Cochran-Armitage Trend test, actual p = 0.046) was “Yes^f” and the “SDCES (Significant Decrease In Cartilage Erosion Severity)” value ([1]; four week study, oral, two times per day, 10 mg/kg per dose, Ridit Analysis, 10 mg/kg) was “significantly decrease cartilage erosion severity and No”. The “IJFL (Inhibition of Joint Function Limitation) (% +/− SEM)” value ([1]; four week study, oral, two times per day, 10 mg/kg per dose, p < 0.05 versus vehicle) was 70 +/− 9%, the “SIJWHLE (Significant Increase in Joints Without Hind Limb Erosion)” value ([1]; four week study, oral, two times per day, 30 mg/kg per dose, Cochran-Armitage Trend test, actual p = 0.020) was “Yes^e” and the “IJFL (Inhibition of Joint Function Limitation) (% +/− SEM)” value ([1]; four week study, oral, two times per day, 30 mg/kg per dose, p < 0.05 versus vehicle) was 83 +/− 7%. For the same molecule, the “SDCES (Significant Decrease In Cartilage Erosion Severity)” value ([1]; four week study, oral, two times per day, 30 mg/kg per dose, p < 0.05 versus vehicle (Ridit Analysis), actual p = 0.021, 30 mg/kg) was “significantly decrease cartilage erosion severity; also recorded: Yes^d”.

For `Cc1onc(-c2ccccc2)c1-c1ccc(S(N)(=O)=O)cc1` [valdecoxib, 4-(5-methyl-3-phenyl-4-isoxazolyl)-benzenesulfonamide], the tolerability ([2]; combined analysis of various clinical studies) is given as “well tolerated” and the “overall upper gastrointestinal safety profile (ulcers, perforations, obstructions and GI bleeds)” value ([2]; versus conventional NSAIDs studied such as ibuprofen, diclofenac and naproxen) is given as “significantly better”.
